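Cells were grown in 96-well plates and exposed to each compound for 48 hours at five concentrations; endpoints were interpolated linearly between bracketing concentrations, or set to the highest concentration if not reached. TGI: total growth inhibition.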 Activity calls are given as the source filed them. Cut-off read from the data, not from the text of the source: active = GI50 below about 0.43 µM; inactive = the rest.
Key:
Assay in all cases: inhibition of tumour cell growth, NCI panel, 48 h
KM12 colon = system: KM12 colon
SN12C renal = system: SN12C renal
HCT-116 colon = system: HCT-116 colon
XF 498 CNS = system: XF 498 CNS
MOLT-4 leukemia = system: MOLT-4 leukemia
SK-MEL-28 melanoma = system: SK-MEL-28 melanoma
HOP-62 NSCLC = system: HOP-62 NSCLC
SNB-75 CNS = system: SNB-75 CNS
SK-MEL-2 melanoma = system: SK-MEL-2 melanoma
SF-539 CNS = system: SF-539 CNS
HCT-15 colon = system: HCT-15 colon
IGROV1 ovarian = system: IGROV1 ovarian
UACC-62 melanoma = system: UACC-62 melanoma
CCRF-CEM leukemia = system: CCRF-CEM leukemia
HT29 colon = system: HT29 colon
U251 CNS = system: U251 CNS
SW-620 colon = system: SW-620 colon
OVCAR-5 ovarian = system: OVCAR-5 ovarian
SK-MEL-5 melanoma = system: SK-MEL-5 melanoma
UACC-257 melanoma = system: UACC-257 melanoma
HCC-2998 colon = system: HCC-2998 colon
LOX IMVI melanoma = system: LOX IMVI melanoma
SK-OV-3 ovarian = system: SK-OV-3 ovarian
M19-MEL melanoma = system: M19-MEL melanoma
OVCAR-8 ovarian = system: OVCAR-8 ovarian
SNB-19 CNS = system: SNB-19 CNS
SF-268 CNS = system: SF-268 CNS
SNB-78 CNS = system: SNB-78 CNS
HL-60(TB) leukemia = system: HL-60(TB) leukemia
A549 NSCLC = system: A549 NSCLC
EKVX NSCLC = system: EKVX NSCLC
NCI-H226 lung = system: NCI-H226 lung
TK-10 renal = system: TK-10 renal
K-562 leukemia = system: K-562 leukemia
HOP-92 NSCLC = system: HOP-92 NSCLC
786-0 renal = system: 786-0 renal
RXF-631 renal = system: RXF-631 renal
A498 renal = system: A498 renal
DMS 273 small cell lung = system: DMS 273 small cell lung
NCI-H522 lung = system: NCI-H522 lung
NCI-H460 lung = system: NCI-H460 lung
UO-31 renal = system: UO-31 renal
RXF 393 renal = system: RXF 393 renal
M14 melanoma = system: M14 melanoma
ACHN renal = system: ACHN renal
SF-295 CNS = system: SF-295 CNS
OVCAR-3 ovarian = system: OVCAR-3 ovarian
CAKI-1 renal = system: CAKI-1 renal
KM20L2 colon = system: KM20L2 colon
LXFL 529 NSCLC = system: LXFL 529 NSCLC
MALME-3M melanoma = system: MALME-3M melanoma
OVCAR-4 ovarian = system: OVCAR-4 ovarian
COLO 205 colon = system: COLO 205 colon
RPMI-8226 leukemia = system: RPMI-8226 leukemia
DLD-1 colon = system: DLD-1 colon
NCI-H23 lung = system: NCI-H23 lung
DMS 114 small cell lung = system: DMS 114 small cell lung
SR leukemia = system: SR leukemia

SMILES: c1c2c(cc(-n3nnc4c3CCCCCC4)c1-n1nnc3c1CCCCCC3)CCCCCC2
- TGI (KM12 colon): 25.8 µM
- TGI (SN12C renal): 24.4 µM
- TGI (HCT-116 colon): 21.6 µM
- TGI (XF 498 CNS): 9.62 µM
- TGI (MOLT-4 leukemia): 11 µM
- TGI (SK-MEL-28 melanoma): 33.9 µM
- TGI (HOP-62 NSCLC): 39 µM
- TGI (SNB-75 CNS): 32.1 µM
- TGI (SK-MEL-2 melanoma): 34.6 µM
- outcome (SF-539 CNS): inactive
- TGI (HCT-15 colon): 19 µM
- TGI (IGROV1 ovarian): 41.2 µM
- TGI (UACC-62 melanoma): 26.7 µM
- TGI (CCRF-CEM leukemia): 27.3 µM
- TGI (HT29 colon): 19.8 µM
- TGI (U251 CNS): 22.4 µM
- TGI (SW-620 colon): 27.4 µM
- TGI (OVCAR-5 ovarian): 30 µM
- TGI (SK-MEL-5 melanoma): 24.7 µM
- TGI (UACC-257 melanoma): 32.9 µM
- TGI (HCC-2998 colon): 29.5 µM
- TGI (LOX IMVI melanoma): 26.6 µM
- TGI (SK-OV-3 ovarian): 34.5 µM
- TGI (M19-MEL melanoma): 25.5 µM
- TGI (OVCAR-8 ovarian): 38.7 µM
- TGI (SNB-19 CNS): 28.4 µM
- TGI (SF-268 CNS): 23.8 µM
- TGI (SNB-78 CNS): 39.4 µM
- TGI (HL-60(TB) leukemia): > 100 µM
- outcome (A549 NSCLC): inactive
- TGI (EKVX NSCLC): 23.6 µM
- TGI (NCI-H226 lung): 41.6 µM
- TGI (TK-10 renal): 25.4 µM
- TGI (K-562 leukemia): 40.6 µM
- TGI (HOP-92 NSCLC): 12.6 µM
- outcome (786-0 renal): inactive
- TGI (RXF-631 renal): 34.8 µM
- TGI (A498 renal): 22.2 µM
- TGI (DMS 273 small cell lung): 12.3 µM
- TGI (NCI-H522 lung): 1.85 µM
- TGI (NCI-H460 lung): 18.9 µM
- TGI (UO-31 renal): 18.9 µM
- TGI (RXF 393 renal): 21.6 µM
- TGI (M14 melanoma): 32.8 µM
- TGI (ACHN renal): 20.9 µM
- TGI (SF-295 CNS): 25.3 µM
- TGI (OVCAR-3 ovarian): 64.8 µM
- TGI (CAKI-1 renal): 7.17 µM

SMILES: FC(F)(F)c1cc(C2SCc3nc4ccccc4n32)cc(C(F)(F)F)c1 (stereo not given)
- TGI (KM20L2 colon): > 100 µM
- TGI (KM12 colon): > 100 µM
- TGI (SN12C renal): > 100 µM
- TGI (XF 498 CNS): 35.6 µM
- TGI (MOLT-4 leukemia): > 100 µM
- TGI (HOP-62 NSCLC): > 100 µM
- TGI (SF-539 CNS): > 100 µM
- TGI (IGROV1 ovarian): > 100 µM
- TGI (UACC-62 melanoma): > 100 µM
- TGI (CCRF-CEM leukemia): > 100 µM
- TGI (HT29 colon): > 100 µM
- TGI (OVCAR-5 ovarian): > 100 µM
- TGI (UACC-257 melanoma): > 100 µM
- TGI (SK-OV-3 ovarian): > 100 µM
- TGI (OVCAR-8 ovarian): > 100 µM
- TGI (SNB-19 CNS): > 100 µM
- TGI (SF-268 CNS): > 100 µM
- TGI (LXFL 529 NSCLC): > 100 µM
- TGI (SNB-78 CNS): > 100 µM
- TGI (HL-60(TB) leukemia): > 100 µM
- TGI (NCI-H226 lung): > 100 µM
- TGI (TK-10 renal): > 100 µM
- TGI (MALME-3M melanoma): > 100 µM
- TGI (K-562 leukemia): > 100 µM
- TGI (OVCAR-4 ovarian): > 100 µM
- TGI (HOP-92 NSCLC): > 100 µM
- TGI (786-0 renal): > 100 µM
- TGI (RXF-631 renal): > 100 µM
- TGI (A498 renal): > 100 µM
- TGI (DMS 273 small cell lung): > 100 µM
- TGI (UO-31 renal): > 100 µM
- TGI (RXF 393 renal): > 100 µM
- TGI (ACHN renal): > 100 µM
- TGI (SF-295 CNS): > 100 µM
- TGI (CAKI-1 renal): > 100 µM

SMILES: CCCCN(CCCC)C(=O)/C(CC(=O)c1cccc2ccccc12)=N\NC(=O)c1cc2ccccc2cc1O
- TGI (KM20L2 colon): 51.3 µM
- TGI (KM12 colon): > 100 µM
- TGI (SN12C renal): 52.6 µM
- TGI (HCT-116 colon): 28 µM
- TGI (XF 498 CNS): 88.1 µM
- TGI (COLO 205 colon): 56.3 µM
- TGI (MOLT-4 leukemia): 42.9 µM
- TGI (SK-MEL-28 melanoma): > 100 µM
- TGI (HOP-62 NSCLC): 39.9 µM
- TGI (SNB-75 CNS): 92.7 µM
- TGI (SK-MEL-2 melanoma): 45.7 µM
- TGI (IGROV1 ovarian): 71.3 µM
- TGI (UACC-62 melanoma): 23.3 µM
- TGI (CCRF-CEM leukemia): 25.3 µM
- TGI (HT29 colon): 57.7 µM
- TGI (U251 CNS): 72.3 µM
- TGI (SW-620 colon): > 100 µM
- TGI (OVCAR-5 ovarian): 80.5 µM
- TGI (SK-MEL-5 melanoma): 32 µM
- TGI (UACC-257 melanoma): 52.8 µM
- TGI (HCC-2998 colon): 43.8 µM
- TGI (LOX IMVI melanoma): 35.9 µM
- TGI (M19-MEL melanoma): > 100 µM
- TGI (OVCAR-8 ovarian): > 100 µM
- TGI (SNB-19 CNS): > 100 µM
- TGI (SF-268 CNS): 70.9 µM
- TGI (RPMI-8226 leukemia): 21.5 µM
- TGI (LXFL 529 NSCLC): > 100 µM
- TGI (SNB-78 CNS): 99.7 µM
- TGI (HL-60(TB) leukemia): 16.5 µM
- TGI (A549 NSCLC): 64.8 µM
- TGI (EKVX NSCLC): 50.9 µM
- TGI (DLD-1 colon): > 100 µM
- TGI (NCI-H226 lung): 44.7 µM
- TGI (TK-10 renal): > 100 µM
- TGI (MALME-3M melanoma): 35.4 µM
- TGI (OVCAR-4 ovarian): 70.5 µM
- TGI (HOP-92 NSCLC): 56.8 µM
- TGI (786-0 renal): 77.3 µM
- TGI (RXF-631 renal): 70.5 µM
- TGI (NCI-H460 lung): 44.2 µM
- TGI (UO-31 renal): 37.3 µM
- TGI (RXF 393 renal): 63 µM
- TGI (M14 melanoma): 69.8 µM
- TGI (NCI-H23 lung): 45.6 µM
- TGI (ACHN renal): 78.7 µM
- TGI (SF-295 CNS): 92.7 µM
- TGI (OVCAR-3 ovarian): 53.3 µM

SMILES: Cc1cn(C2CC(N(C)C)C(CO)O2)c(=O)[nH]c1=O (stereo not given)
- TGI (SN12C renal): > 100 µM
- TGI (HCT-116 colon): > 100 µM
- TGI (XF 498 CNS): > 100 µM
- TGI (COLO 205 colon): > 100 µM
- TGI (MOLT-4 leukemia): > 100 µM
- TGI (SK-MEL-28 melanoma): > 100 µM
- TGI (HOP-62 NSCLC): > 100 µM
- TGI (SNB-75 CNS): > 100 µM
- TGI (SK-MEL-2 melanoma): > 100 µM
- TGI (SF-539 CNS): > 100 µM
- TGI (IGROV1 ovarian): > 100 µM
- TGI (UACC-62 melanoma): > 100 µM
- TGI (CCRF-CEM leukemia): > 100 µM
- TGI (DMS 114 small cell lung): > 100 µM
- TGI (HCC-2998 colon): > 100 µM
- TGI (SK-OV-3 ovarian): > 100 µM
- TGI (M19-MEL melanoma): > 100 µM
- TGI (SF-268 CNS): > 100 µM
- TGI (RPMI-8226 leukemia): > 100 µM
- TGI (LXFL 529 NSCLC): > 100 µM
- TGI (SNB-78 CNS): > 100 µM
- TGI (HL-60(TB) leukemia): > 100 µM
- TGI (DLD-1 colon): > 100 µM
- TGI (NCI-H226 lung): > 100 µM
- TGI (MALME-3M melanoma): > 100 µM
- TGI (K-562 leukemia): > 100 µM
- TGI (SR leukemia): > 100 µM
- TGI (OVCAR-4 ovarian): > 100 µM
- TGI (HOP-92 NSCLC): > 100 µM
- TGI (786-0 renal): > 100 µM
- TGI (RXF-631 renal): > 100 µM
- TGI (A498 renal): > 100 µM
- TGI (DMS 273 small cell lung): > 100 µM
- TGI (NCI-H522 lung): > 100 µM
- TGI (UO-31 renal): > 100 µM
- TGI (M14 melanoma): > 100 µM
- TGI (NCI-H23 lung): > 100 µM
- TGI (ACHN renal): > 100 µM
- TGI (CAKI-1 renal): > 100 µM

Reference: PubChem BioAssay (NCI)
